Results on five compounds are retold here after US20060122201A1, “Uracil-thioether” (priority 2002, published 2006).

This test has as its target T1, Pol III (PolC) from S. aureus (Staphylococcus aureus, UniProt P0C1P9).
T1 construct: His tag (pET15b vector) (N); made in house; host or cells: E. coli BL21(DE3)
T1 sequence (P0C1P9 1-1435): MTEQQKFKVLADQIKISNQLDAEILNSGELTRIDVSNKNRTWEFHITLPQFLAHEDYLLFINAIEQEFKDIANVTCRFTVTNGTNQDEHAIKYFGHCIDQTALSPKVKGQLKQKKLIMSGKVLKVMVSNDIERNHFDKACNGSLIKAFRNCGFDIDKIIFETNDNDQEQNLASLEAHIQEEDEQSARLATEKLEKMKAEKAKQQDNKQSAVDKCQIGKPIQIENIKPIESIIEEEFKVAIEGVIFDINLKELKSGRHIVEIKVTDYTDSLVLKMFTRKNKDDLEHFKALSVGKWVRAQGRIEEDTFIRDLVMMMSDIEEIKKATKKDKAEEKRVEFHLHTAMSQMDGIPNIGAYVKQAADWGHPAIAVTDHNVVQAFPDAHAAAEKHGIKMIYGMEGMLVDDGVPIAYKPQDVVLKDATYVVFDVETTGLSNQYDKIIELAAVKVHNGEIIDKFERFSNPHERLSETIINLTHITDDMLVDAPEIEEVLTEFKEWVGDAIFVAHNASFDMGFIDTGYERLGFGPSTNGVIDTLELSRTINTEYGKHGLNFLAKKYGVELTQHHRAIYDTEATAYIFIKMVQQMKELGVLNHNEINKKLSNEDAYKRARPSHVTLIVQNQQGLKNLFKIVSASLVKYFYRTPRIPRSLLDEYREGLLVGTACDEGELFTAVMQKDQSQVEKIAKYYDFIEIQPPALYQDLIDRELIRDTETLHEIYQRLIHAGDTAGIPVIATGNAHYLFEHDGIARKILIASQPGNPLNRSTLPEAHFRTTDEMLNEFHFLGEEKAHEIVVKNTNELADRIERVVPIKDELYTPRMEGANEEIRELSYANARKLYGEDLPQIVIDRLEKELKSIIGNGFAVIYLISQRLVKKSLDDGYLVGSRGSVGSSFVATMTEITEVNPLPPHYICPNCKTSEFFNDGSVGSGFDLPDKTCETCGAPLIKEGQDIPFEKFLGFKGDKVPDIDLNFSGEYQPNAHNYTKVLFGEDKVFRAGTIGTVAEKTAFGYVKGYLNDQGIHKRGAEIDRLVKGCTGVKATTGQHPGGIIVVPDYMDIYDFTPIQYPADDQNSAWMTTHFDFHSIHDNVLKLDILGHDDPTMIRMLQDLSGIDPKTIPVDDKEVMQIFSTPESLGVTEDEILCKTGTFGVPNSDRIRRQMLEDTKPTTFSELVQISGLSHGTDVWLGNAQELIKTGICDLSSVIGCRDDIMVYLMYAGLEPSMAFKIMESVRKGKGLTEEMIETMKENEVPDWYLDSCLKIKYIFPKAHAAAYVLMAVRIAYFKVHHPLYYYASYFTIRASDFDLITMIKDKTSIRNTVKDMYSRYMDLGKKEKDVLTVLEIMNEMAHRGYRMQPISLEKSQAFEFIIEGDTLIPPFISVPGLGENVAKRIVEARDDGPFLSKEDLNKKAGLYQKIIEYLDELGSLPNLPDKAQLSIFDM
The test is described as follows: Determination of the IC50 for Polymerase III (PolC), coupled pyrophosphate/ATP sulfurylase/luciferase assay. The test is classed as biochemical. The note with it: purified His-tagged PolC 2 nM, activated calf thymus DNA, 30° C. 30 min, luminescence readout. An excerpt: Cloning, Expression and Purification of Pol III from S. aureus
To clone polC with an N-terminal His tag, the structural gene polC is amplified from S. aureus genomic DNA with the aid of PCR. The primers SAPol 31 5′-[…]-3′ and SAPolrev 5′-[…]-3′ are used to introduce the NdeI and BamHI restriction cleavage sites respectively in front of and behind the amplified gene. After the PCR product which is 4300 bp in size has been digested with NdeI and BamHI, it is ligated into the vector pET15b (Novagen, USA), which has likewise been digested with NdeI and BamHI, and transformed into E. coli XL-1 Blue.
After transformation into E. coli BL21(DE3), the cells are cultivated for expression of PolC at 30° C. in LB medium with 100 μg/ml ampicillin until the OD595nm is 0.5, cooled to 18° C. and, after addition of 1 mM IPTG, incubated for a further 20 hours. The cells are harvested by centrifugation, washed once in PBS with 1 mM PMSF and taken up in 50 mM NaH2PO4 pH 8.0, 10 mM imidazole, 2 mM β-mercaptoethanol, 1 mM PMSF, 20% glycerol. The cells are disrupted using a French press at 12,000 psi, the cell detritus is removed by centrifugation (27,000×g, 120 min, 4° C.) and the supernatant is stirred with an appropriate amount of Ni-NTA-agarose (from Quiagen, Germany) at 4° C. for 1 hour. After the gel matrix has been packed into a column it is washed with 50 mM NaH2PO4 pH 8.0, 2 mM β-mercaptoethanol, 20 mM imidazole, 10% glycerol, and the purified protein is then eluted with the same buffer containing 100 mM imidazole. The purified protein is mixed with 50% glycerol and stored at −20° C.
Determination of the IC50 for Polymerase III
The activity of PolC is measured in an enzymatically coupled reaction, with the pyrophosphate formed during the polymerization being converted with the aid of ATP sulfurylase into ATP, which is detected using firefly luciferase. The reaction mixture contains, in a final volume of 50 μl, 50 mM Tris/Cl pH 7.5; 5 mM DTT, 10 mM MgCl2, 30 mM NaCl, 0.1 mg/ml BSA, 10% glycerol, 20 μM each DATP, dTTP, dCTP, 2 U/ml activated calf thymus DNA (from Worthington, USA), 20 μM APS and 0.06 mM luciferin. The reaction is started by adding purified PolC in a final concentration of 2 nM and is incubated at 30° C. for 30 min. The amount of pyrophosphate formed is then converted into ATP by adding ATP sulfurylase (Sigma, USA) in a final concentration of 5 nM and incubating at 30° C. for 15 min. After addition of 0.2 nM firefly luciferase, the luminescence is measured in a luminometer for 60 s. The IC50 is reported as the concentration of an inhibitor which leads to 50% inhibition of the enzymic activity of PolC.
For orientation: IC50 means the concentration needed to halve the response being measured. In the case of `CSc1nnc(CSCCn2c(=O)cc(Nc3ccc4c(c3)CCC4)[nH]c2=O)s1` [Example 15], the half-maximal inhibitory concentration (IC50) is 0.11 µM. For `CCc1cc(Nc2cc(=O)n(CCSCC(=O)N3CCN(c4ccc([N+](=O)[O-])cc4)CC3)c(=O)[nH]2)ccc1C` [Example 34] the value was 0.3 µM. For `CCc1cc(Nc2cc(=O)n(CCSCc3nnc(C)s3)c(=O)[nH]2)ccc1C` [Example 16] the value was 0.05 µM; for `CCc1cc(Nc2cc(=O)n(CCCSCC(=O)N3CCN(c4ccc(F)cc4)CC3)c(=O)[nH]2)ccc1C` [Example 47], 0.4 µM. For `CCc1cc(Nc2cc(=O)n(CCSCc3c(C)noc3C)c(=O)[nH]2)ccc1C` [Example 42] the value was 0.08 µM.
